Values of other authors, collected in patent US20060110454A1 (priority 2004, published 2006).
Structures can show the parent of a compound that is named as a salt.

CCCN[C@H]1CCc2nc(N)sc2C1 [Pramipexole dihydrochloride, (S)-2-amino-4,5,6,7-tetrahydro-6-(propylamino)benzothiazole dihydrochloride monohydrate]
soluble in ethanol (ethanol): about 0.5% | soluble in methanol (methanol): about 8% | soluble in water (water): more than 20%
